Assay results published in article PMC3019604 (ACS medicinal chemistry letters, 2010).

Tested on: BJ, HEK293, HEP G2, and Raji cell lines
Assay: Cytotoxicity
Assay type: cell-based, human
Settings: four mammalian cell lines (BJ, HEK293, HEP G2, Raji)

Question: Which “mammalian cytotoxicity (in words)” value does the source give for Cc1cc(NC(=O)Nc2cccc(OC(F)(F)F)c2)c2ccccc2n1 [4{13, 34}] here?
Answer: Its value is “weak”.
